Read-outs that look alike come from different tables or passages of the source.

Test [1] relates to phosphorylation of AKT on Ser473 (PI3K pathway) in SKBR3 (PIK3CA WT) cell line. As to the kind of experiment: PI3K pathway activation assay (pAKT Ser473 HTRF), SKBR3 cells. It counts as cell-based. As to conditions: Homo sapiens, SK-BR-3, 2 h, two hours of treatment. As to the method:
(§1) The inhibitory activity of the compounds of the disclosure was evaluated by measuring phosphorylation of AKT on Ser473 as a readout of the PI3K pathway using HTRF (CisBio catalog number: 64AKSPE). These studies were conducted in the T-47D (heterozygous PIK3CA H1047R) and SKBR3 (PIK3CA WT) cell lines. Cells were maintained in a 37° C. incubator at 5% CO2 in the following media: T-47D: RPMI 1640, ATCC© Modification (Gibco, A10491-01) supplemented with 10% v/v FBS (Gibco, 26140-079), 1% penicillin streptomycin (Gibco, 15140-122), and 7.4 ug/mL insulin (MilliporeSigma, I9278); SKBR3: McCoy's 5a (Modified) Medium (Gibco, 16600-082) supplemented with 10% v/v FBS (Gibco, 26140-079). Cells were seeded in 384-well plates at a density of 4,000 cells/well. Compounds dissolved in DMSO were added using a digital dispense (D300E, Tecan) 10-point serial dilution. After two hours of treatment, cells were lysed for thirty minutes and then incubated with detection reagents per HTRF kit material and manufacturer's instructions. Fluorescence signal was measured with a multimode plate reader (Envision 2105, Perkin Elmer). Fluorescent signal was normalized to background and DMSO controls to obtain percent inhibition/activity for each compound.
(In general: In TR-FRET formats the signal depends on donor and acceptor labels being close together.)

Test [2] deals with phosphorylation of AKT on Ser473 (PI3K pathway) in T-47D (heterozygous PIK3CA H1047R) cell line. Description: PI3K pathway activation assay (pAKT Ser473 HTRF), T-47D cells. It counts as cell-based. As to conditions: read-out: T47D pAKT IC50. As to the method: as §1
[3] abbreviates: Homo sapiens, T47D, 2 h, T-47D (heterozygous PIK3CA H1047R) cells, two hours of treatment, pAKT Ser473 HTRF.
Where [4] appears, read: T-47D (heterozygous PIK3CA H1047R) cells, two hours of treatment, pAKT Ser473 HTRF.

The IC50 is the point on the concentration scale where inhibition reaches its midpoint. For the compound `Cc1cc(C(C)Nc2ccc(Br)nc2C(=O)O)nc(N2C(=O)OC[C@@H]2Cc2ccccc2)c1` (single isomer, unassigned) [Example 18], the IC50 in test [1] is greater than 10000 nM; in test [2] (setting [3]), less than 100 nM.

With `COc1cc(C[C@H]2COC(=O)N2c2cc(C)cc([C@@H](C)Nc3ccc(Cl)nc3C(=O)O)n2)c(F)cn1` [Example 29, 6-Chloro-3-(((R)-1-(6-((S)-4-((5-fluoro-2-methoxypyridin-4-yl)methyl)-2-oxooxazolidin-3-yl)-4-methylpyridin-2-yl)ethyl)amino)picolinic acid], the half-inhibitory concentration (IC50) in test [1] is greater than 10000 nM; in test [2] (setting [3]) it was less than 100 nM.

Take `Cc1cc([C@@H](C)Nc2ccc(Cl)nc2C(=O)O)nc(N2C(=O)OC[C@@H]2Cc2ccncc2F)c1` [Example 21, 6-Chloro-3-(((R)-1-(6-((S)-4-((3-fluoropyridin-4-yl)methyl)-2-oxooxazolidin-3-yl)-4-methylpyridin-2-yl)ethyl)amino)picolinic acid]: the values for the half-maximal inhibitory concentration (IC50) in test [1] and in test [2] (setting [3]) were 1000 to 10000 nM and less than 100 nM, respectively.

With `Cc1cc([C@@H](C)Nc2ccc(Cl)nc2C(=O)O)nc(N2C(=O)OC[C@@H]2CCc2ccccc2)c1` [Example 53, 6-Chloro-3-(((R)-1-(4-methyl-6-((S)-2-oxo-4-phenethyloxazolidin-3-yl)pyridin-2-yl)ethyl)amino)picolinic acid], the concentration for half-maximal inhibition (IC50) in test [2] (setting [3]) lay within 100 to 1000 nM.

Regarding `Cc1cc([C@@H](C)Nc2ccc(Cl)nc2C(=O)O)nc(N2C(=O)OC[C@@H]2Cc2c[nH]c3ccccc23)c1` [Example 50, 3-(((R)-1-(6-((S)-4-((1H-Indol-3-yl)methyl)-2-oxooxazolidin-3-yl)-4-methylpyridin-2-yl)ethyl)amino)-6-chloropicolinic acid], the IC50 in test [2] (setting [3]) lay in the range of 100 to 1000 nM.

Regarding `Cc1cc([C@@H](C)Nc2ccc(Cl)nc2C(=O)O)nc(N2C(=O)OC[C@@H]2CC2CCC2)c1` [Example 47, 6-Chloro-3-(((R)-1-(6-((S)-4-(cyclobutylmethyl)-2-oxooxazolidin-3-yl)-4-methylpyridin-2-yl)ethyl)amino)picolinic acid], the half-inhibitory concentration (IC50) in test [2] (setting [3]) is less than 100 nM.

In the case of `CC(Nc1ccc(F)nc1C(=O)O)c1cc(F)cc(N2C(=O)OC[C@@H]2Cc2ccccc2)c1` (stereo partly drawn) [Example 5, 3-((1-(3-((S)-4-Benzyl-2-oxooxazolidin-3-yl)-5-fluorophenyl)ethyl)amino)-6-fluoropicolinic acid], the IC50 in test [2] (setting [3]) fell in the range of 100 to 1000 nM.

Take `Cc1cc([C@@H](C)Nc2ccc(Cl)nc2C(=O)O)nc(N2C(=O)COC[C@@H]2Cc2ccccc2)c1` [Example 57, 3-(((R)-1-(6-((S)-3-Benzyl-5-oxomorpholino)-4-methylpyridin-2-yl)ethyl)amino)-6-chloropicolinic acid]: the IC50 in test [2] (setting [3]) was 100 to 1000 nM.

For `Cc1cc([C@@H](C)Nc2ccc(Cl)nc2C(=O)O)nc(N2C(=O)OC[C@@H]2Cc2ccncc2)c1` [Example 28, 6-Chloro-3-(((R)-1-(4-methyl-6-((S)-2-oxo-4-(pyridin-4-ylmethyl)oxazolidin-3-yl)pyridin-2-yl)ethyl)amino)picolinic acid], the IC50 in test [2] (setting [3]) was 100 to 1000 nM.

As for `CC(Nc1ccc(F)nc1C(=O)O)c1cc(N2C(=O)OC[C@@H]2Cc2ccccc2)cc(C(F)(F)F)c1` (stereo partly drawn) [Example 8, 3-((1-(3-((S)-4-Benzyl-2-oxooxazolidin-3-yl)-5-(trifluoromethyl)phenyl)ethyl)amino)-6-fluoropicolinic acid], in test [2] (setting [3]), the half-inhibitory concentration (IC50) was 1000 to 10000 nM.

Consider `Cc1cc([C@@H](C)Nc2ccc(Cl)nc2C(=O)O)nc(N2C(=O)OC[C@@H]2Cc2ccc3nn(C)cc3c2)c1` [Example 43, 6-Chloro-3-(((R)-1-(4-methyl-6-((S)-4-((2-methyl-2H-indazol-5-yl)methyl)-2-oxooxazolidin-3-yl)pyridin-2-yl)ethyl)amino)picolinic acid], for which the IC50 in test [2] (setting [3]) is less than 100 nM.

Consider `Cc1cc([C@@H](C)Nc2ccc(Cl)nc2C(=O)O)nc(N2C(=O)OC[C@@H]2Cc2ccccc2Br)c1` [Example 22, 3-(((R)-1-(6-((S)-4-(2-Bromobenzyl)-2-oxooxazolidin-3-yl)-4-methylpyridin-2-yl)ethyl)amino)-6-chloropicolinic acid], for which the 50% inhibitory concentration (IC50) in test [2] (Homo sapiens, T47D, 2 h) was in the range of 100 to 1000 nM.

Turning to `Cc1cccc(C[C@H]2COC(=O)N2c2cc(F)cc([C@@H](C)Nc3ccc(Cl)nc3C(=O)O)c2)c1` [Example 62, 6-Chloro-3-(((R)-1-(3-fluoro-5-((S)-4-(3-methylbenzyl)-2-oxooxazolidin-3-yl)phenyl)ethyl)amino)picolinic acid], the half-maximal inhibitory concentration (IC50) in test [2] (setting [3]) was in the range of 100 to 1000 nM.

Take `Cc1cc(C(C)Nc2ccc(C#N)nc2C(=O)O)nc(N2C(=O)OC[C@@H]2Cc2ccccc2)c1` (stereo partly drawn) [Example 19, 3-((1-(6-((S)-4-Benzyl-2-oxooxazolidin-3-yl)-4-methylpyridin-2-yl)ethyl)amino)-6-cyanopicolinic acid]: in test [2] (setting [3]), the half-maximal inhibitory concentration (IC50) was 1000 to 10000 nM.

In the case of `COc1ccc(NC(C)c2cc(C)cc(N3C(=O)OC[C@@H]3Cc3ccccc3)n2)c(C(=O)O)n1` (single isomer, unassigned) [Example 16], the half-maximal inhibitory concentration (IC50) in test [2] (setting [3]) is 100 to 1000 nM.

In the case of `Cc1cc([C@@H](C)Nc2ccc(Cl)nc2C(=O)O)nc(N2C(=O)OC[C@@H]2Cc2ccn3nccc3c2)c1` [Example 40, 6-Chloro-3-(((R)-1-(4-methyl-6-((S)-2-oxo-4-(pyrazolo[1,5-α]pyridin-5-ylmethyl)oxazolidin-3-yl)pyridin-2-yl)ethyl)amino)picolinic acid], the concentration for half-maximal inhibition (IC50) in test [2] (setting [4]) was less than 100 nM.

On to `Cc1cc([C@@H](C)Nc2ccc(Cl)nc2C(=O)O)nc(N2C(=O)OC[C@@H]2Cc2cccn3ccnc23)c1` [Example 44, 6-Chloro-3-(((R)-1-(6-((S)-4-(imidazo[1,2-α]pyridin-8-ylmethyl)-2-oxooxazolidin-3-yl)-4-methylpyridin-2-yl)ethyl)amino)picolinic acid], for which, in test [2] (setting [4]), the half-inhibitory concentration (IC50) fell in the range of 100 to 1000 nM.

For the compound `Cc1cc([C@@H](C)Nc2ccc(Cl)nc2C(=O)O)nc(N2C(=O)OC[C@@H]2Cc2ccc3c(cnn3C)c2)c1` [Example 42, 6-Chloro-3-(((R)-1-(4-methyl-6-((S)-4-((1-methyl-1H-indazol-5-yl)methyl)-2-oxooxazolidin-3-yl)pyridin-2-yl)ethyl)amino)picolinic acid], the IC50 in test [2] (setting [3]) is less than 100 nM.

Regarding `Cc1cc(C(C)Nc2ccc(C)nc2C(=O)O)nc(N2C(=O)OC[C@@H]2Cc2ccccc2)c1` (single isomer, unassigned) [Example 14], in test [2] (setting [3]), the 50% inhibitory concentration (IC50) lay within 100 to 1000 nM.

As to `CON(C)C(=O)c1ccc(C[C@H]2COC(=O)N2c2cc(C)cc([C@@H](C)Nc3ccc(Cl)nc3C(=O)O)n2)cc1` [Example 52, 6-Chloro-3-(((R)-1-(6-((S)-4-(4-(methoxy(methyl)carbamoyl)benzyl)-2-oxooxazolidin-3-yl)-4-methylpyridin-2-yl)ethyl)amino)picolinic acid], the half-inhibitory concentration (IC50) in test [2] (setting [3]) lay within 100 to 1000 nM.

Turning to `Cc1cc([C@@H](C)Nc2ccc(Cl)nc2C(=O)O)nc(N2C(=O)OC[C@@H]2Cc2cnn(C)c2)c1` [Example 32, 6-Chloro-3-(((R)-1-(4-methyl-6-((S)-4-((1-methyl-1H-pyrazol-4-yl)methyl)-2-oxooxazolidin-3-yl)pyridin-2-yl)ethyl)amino)picolinic acid], the IC50 in test [2] (setting [3]) was 100 to 1000 nM.

For the compound `Cc1cc([C@@H](C)Nc2ccc(Cl)nc2C(=O)O)nc(N2C(=O)OC[C@@H]2Cc2ccnn2C)c1` [Example 34, 6-Chloro-3-(((R)-1-(4-methyl-6-((S)-4-((1-methyl-1H-pyrazol-5-yl)methyl)-2-oxooxazolidin-3-yl)pyridin-2-yl)ethyl)amino)picolinic acid], the 50% inhibitory concentration (IC50) in test [2] (setting [3]) is 100 to 1000 nM.

`C[C@@H](Nc1ccc(Cl)nc1C(=O)O)c1cc(F)cc(N2C(=O)OC[C@@H]2Cc2ccccc2)c1` [Example 10, 3-(((R)-1-(3-((S)-4-Benzyl-2-oxooxazolidin-3-yl)-5-fluorophenyl)ethyl)amino)-6-chloropicolinic acid]: in test [2] (setting [3]), the IC50 was less than 100 nM.

`Cc1cc(C(C)Nc2ccc(C(F)(F)F)nc2C(=O)O)nc(N2C(=O)OC[C@@H]2Cc2ccccc2)c1` (single isomer, unassigned) [Example 15]: the IC50 in test [2] (setting [3]) fell in the range of 1000 to 10000 nM.

Turning to `Cc1cc(C(C)Nc2ccccc2C(=O)O)nc(N2C(=O)OC[C@@H]2Cc2ccccc2)c1` (stereo partly drawn) [Example 17, 2-((1-(6-((S)-4-Benzyl-2-oxooxazolidin-3-yl)-4-methylpyridin-2-yl)ethyl)amino)benzoic acid], the IC50 in test [2] (setting [3]) fell in the range of 1000 to 10000 nM.

In the case of `Cc1cc([C@@H](C)Nc2ccc(Cl)nc2C(=O)O)nc(N2C(=O)OC[C@@H]2Cc2ccn(C)n2)c1` [Example 33, 6-Chloro-3-(((R)-1-(4-methyl-6-((S)-4-((1-methyl-1H-pyrazol-3-yl)methyl)-2-oxooxazolidin-3-yl)pyridin-2-yl)ethyl)amino)picolinic acid], in test [2] (setting [3]), the IC50 fell in the range of 100 to 1000 nM.

As for `Cc1cc(C(C)Nc2ccc(F)nc2C(=O)O)cc(N2C(=O)OC[C@@H]2Cc2ccccc2)c1` (stereo partly drawn) [Example 3, 3-((1-(3-((S)-4-Benzyl-2-oxooxazolidin-3-yl)-5-methylphenyl)ethyl)amino)-6-fluoropicolinic acid], the IC50 in test [2] (setting [3]) is 100 to 1000 nM.

The values are drawn from patent US20250059175A1, “Mutant Pi3k-Alpha Inhibitors And Their Use As Pharmaceuticals” (Prelude Therapeutics Incorporated, priority 2023, published 2025).
